Assay results from ChEMBL document CHEMBL5608141, “Identification of compartment-specific drug sensitivities in CRC organoid-stroma co-cultures” (2024).

Tests used:
Type in all cases: functional, Homo sapiens
Design in all cases: dose or concentration left out as unconfirmed
[1] = test system: Colon cancer organoid; assay: Identification of compartment-specific drug sensitivities in O20 CRC organoid-stroma F20 CAF co-cultures. Organoid is transduced with Lucferase2-P2A-EGFP lentivirus, fibroblast with Renilla-dsRed lentivirus. Dual-Glo Luciferase assay is used to report viability data.
[2] = test system: Colon cancer organoid; assay: Identification of compartment-specific drug sensitivities in O06 CRC organoid-stroma F06 CAF co-cultures. Organoid is transduced with Lucferase2-P2A-EGFP lentivirus, fibroblast with Renilla-dsRed lentivirus. Dual-Glo Luciferase assay is used to report viability data.
[3] = test system: Colon cancer organoid; assay: Identification of compartment-specific drug sensitivities in O14 CRC organoid-stroma F14 CAF co-cultures. Organoid is transduced with Lucferase2-P2A-EGFP lentivirus, fibroblast with Renilla-dsRed lentivirus. Dual-Glo Luciferase assay is used to report viability data.
[4] = Transduced with Lucferase2-P2A-EGFP lentivirus
[5] = Transduced with Renilla-dsRed lentivirus

SMILES	Cell Viability [1, 4]	Cell Viability [1, 5]	Cell Viability [2, 4]	Cell Viability [2, 5]	Cell Viability [3, 4]	Cell Viability [3, 5]
CCOc1ccn(-c2ccc(F)cc2)c(=O)c1C(=O)Nc1ccc(Oc2ccnc(N)c2Cl)c(F)c1 [BMS-777607]	100.48%	72.8578%	91.8113%	94.0587%	88.1625%	100.395%
O=c1nc(-c2ccccn2)sc2ccccc12 [BTZO-1]	113.092%	104.485%	109.998%	128.099%	117.78%	105.233%
O=C1NC(c2ccccn2)Sc2ccccc21 (configuration not stated) [BTZO-4]	109.35%	85.8309%	80.8326%	70.0316%	106.577%	104.892%
C=CC(=O)Nc1ccc2[nH]c(=O)n(C3CCN(Cc4ccc(-c5nc6cc[nH]c(=O)c6cc5-c5ccccc5)cc4)CC3)c2c1 [Borussertib]	47.6492%	149.193%	51.8578%	132.383%	60.6786%	71.4907%
O=C(NOCC1CC1)c1ccc(F)c(F)c1Nc1ccc(I)cc1Cl [CI-1040]	44.1491%	195.336%	38.2974%	73.8424%	35.7635%	62.5859%
O=C(c1ccc(F)c(F)c1Nc1ccc(I)cc1F)N1CC(O)([C@@H]2CCCCN2)C1 [COBIMETINIB]	4.065%	77.761%	5.143%	42.4292%	13.8076%	23.8651%
COc1c(OCCCN2CCOCC2)ccc2c1N=C(NC(=O)c1cnc(N)nc1)N1CCN=C21 [COPANLISIB]	2.299%	117.524%	1.487%	40.0213%	8.823%	38.6713%
COCC(=O)NC/C=C/c1ccc2ncnc(Nc3ccc(Oc4ccc(C)nc4)c(C)c3)c2c1 [CP-724714]	97.2693%	94.0282%	64.178%	58.1065%	105.334%	107.19%
CN([C@@H]1CCc2c(CC(=O)O)c3cc(S(C)(=O)=O)ccc3n2C1)S(=O)(=O)c1ccc(F)cc1 [CRTH2-negative-control]	107.561%	126.69%	78.3965%	74.5251%	107.65%	94.275%
CNC(=O)c1ccc(Nc2ncc(C(F)(F)F)c(NCc3nccnc3N(C)S(C)(=O)=O)n2)cc1 [DEFACTINIB]	57.0475%	79.7534%	119.668%	427.019%	78.9872%	82.2867%
CCN(CCO)CCCOc1ccc2c(Nc3cc(CC(=O)Nc4cccc(F)c4)[nH]n3)ncnc2c1 [DEFOSBARASERTIB]	5.365%	225.013%	9.138%	166.163%	12.9014%	101.396%
Cn1c(C2(NC(=O)c3ccc4c(C5CCCC5)c(-c5ncc(Br)cn5)n(C)c4c3)CCC2)nc2ccc(/C=C/C(=O)O)cc21 [DELEOBUVIR]	79.9036%	130.288%	117.892%	131.89%	99.2157%	60.0807%
